Activity calls are given as the source filed them. No rule for the calls is given here.
Tested on: CCRIS mutagenicity, Ames/micronucleus/aberration tests
Test: CCRIS mutagenicity studies
[1] = Test System: AMES SALMONELLA TYPHIMURIUM, Strain/Indicator: TA98, Metabolic Activation: NONE, Method: STANDARD PLATE
[2] = Test System: AMES SALMONELLA TYPHIMURIUM, Strain/Indicator: TA100, Metabolic Activation: NONE, Method: STANDARD PLATE
[3] = Test System: AMES SALMONELLA TYPHIMURIUM, Strain/Indicator: TA98, Metabolic Activation: RAT, LIVER, S-9, AROCLOR 1254, Method: STANDARD PLATE
[4] = Test System: AMES SALMONELLA TYPHIMURIUM, Strain/Indicator: TA100, Metabolic Activation: RAT, LIVER, S-9, AROCLOR 1254, Method: STANDARD PLATE

## O=[N+]([O-])c1ccc2ccc3ccc([N+](=O)[O-])cc3c2c1
Test System: AMES SALMONELLA TYPHIMURIUM, Strain/Indicator: TA98(1,8-DNP6), Metabolic Activation: NONE, Method: STANDARD PLATE
  mutagenic call: active; positive
Test System: AMES SALMONELLA TYPHIMURIUM, Strain/Indicator: TA98(NR), Metabolic Activation: NONE, Method: STANDARD PLATE
  mutagenic call: active; positive
[1]
  mutagenic call: active; positive
[2]
  mutagenic call: active; positive
Test System: AMES SALMONELLA TYPHIMURIUM, Strain/Indicator: YG1021, Metabolic Activation: NONE, Method: STANDARD PLATE
  mutagenic call: active; positive
Test System: AMES SALMONELLA TYPHIMURIUM, Strain/Indicator: YG1024, Metabolic Activation: NONE, Method: STANDARD PLATE
  mutagenic call: active; positive
Test System: AMES SALMONELLA TYPHIMURIUM, Strain/Indicator: YG1026, Metabolic Activation: NONE, Method: STANDARD PLATE
  mutagenic call: active; positive
Test System: AMES SALMONELLA TYPHIMURIUM, Strain/Indicator: YG1029, Metabolic Activation: NONE, Method: STANDARD PLATE
  mutagenic call: active; positive

## Nc1cccc2cnsc12
[1]
  mutagenic call: active; positive

## CC(=O)Nc1ccc(C(=O)[C@H]2O[C@H]2c2ccccc2)cc1
[1]
  mutagenic call: inactive; negative
[3]
  mutagenic call: inactive; negative
[2]
  mutagenic call: active; positive
[4]
  mutagenic call: active; positive

## O=Cc1c2ccccc2cc2ccccc12
[3]
  mutagenic call: inactive; negative
[2]
  mutagenic call: inactive; negative
[4]
  mutagenic call: inactive; negative

## NC(=O)/C(=C\c1ccc([N+](=O)[O-])o1)c1ccco1
[1]
  mutagenic call: active; positive
Test System: AMES SALMONELLA TYPHIMURIUM, Strain/Indicator: TA98, Metabolic Activation: RAT, LIVER, S-9, KC500 OR PHENOBARBITAL, Method: LIQUID SUSPENSION
  mutagenic call: active; positive
Test System: AMES SALMONELLA TYPHIMURIUM, Strain/Indicator: TA100, Metabolic Activation: NONE, Method: PREINCUBATION
  mutagenic call: active; positive
[2]
  mutagenic call: active; positive
Test System: AMES SALMONELLA TYPHIMURIUM, Strain/Indicator: TA100, Metabolic Activation: RAT, LIVER, S-9, KC500 OR PHENOBARBITAL, Method: LIQUID SUSPENSION
  mutagenic call: active; positive
Test System: AMES SALMONELLA TYPHIMURIUM, Strain/Indicator: YG7112, Metabolic Activation: NONE, Method: PREINCUBATION
  mutagenic call: active; positive
Test System: AMES SALMONELLA TYPHIMURIUM, Strain/Indicator: YG7113, Metabolic Activation: NONE, Method: PREINCUBATION
  mutagenic call: active; positive
Test System: AMES SALMONELLA TYPHIMURIUM, Strain/Indicator: YG7119, Metabolic Activation: NONE, Method: PREINCUBATION
  mutagenic call: active; positive
Test System: Ames Salmonella typhimurium, Strain/Indicator: TA100, Metabolic Activation: None, Method: Preincubation
  mutagenic call: active; positive
Test System: Ames Salmonella typhimurium, Strain/Indicator: TA1975P, Metabolic Activation: None, Method: Preincubation
  mutagenic call: active; positive (at higher doses)
Test System: CHINESE HAMSTER V-79, Strain/Indicator: V-79/8-AZAGUANINE, Metabolic Activation: NONE, Method: STANDARD PLATE
  mutagenic call: active; positive
Test System: E. COLI, Strain/Indicator: WP2, Metabolic Activation: NONE, Method: PREINCUBATION
  mutagenic call: active; positive
Test System: E. COLI, Strain/Indicator: WP2 UVRA, Metabolic Activation: NONE, Method: SPOT
  mutagenic call: active; positive
Test System: MOUSE LYMPHOMA, Strain/Indicator: L5178Y (TK+/TK-), Metabolic Activation: NONE, Method: SUSPENSION/PLATE
  mutagenic call: active; positive
Test System: MOUSE LYMPHOMA, Strain/Indicator: L5178Y (TK+/TK-), Metabolic Activation: RAT, LIVER, S-9, AROCLOR 1254, Method: SUSPENSION/PLATE
  mutagenic call: active; positive
